Assay results: the NIST ThermoML archive (doi:10.1021/je700254t)

Assay: xn = mol fraction of the nth substance listed
Settings: 101.3 kPa, Liquid

CCCO [propan-1-ol] + c1ccccc1
x1 = 1
Settings	mass density [kg/m3]
288.15 K	807.69
293.15 K	803.703
298.15 K	799.692
303.15 K	795.65
308.15 K	791.576
313.15 K	787.466

ClC(Cl)Cl [trichloromethane] + CCCO
mass density [kg/m3]
Settings	288.15 K	293.15 K	298.15 K	303.15 K	308.15 K	313.15 K
x2 = 0	1498.08	1488.64	1479.15	1469.61	1460.03	1450.41
x2 = 0.0493	1465.28	1456.03	1446.74	1437.41	1428.01	1418.58
x2 = 0.0992	1432.56	1423.54	1414.47	1405.35	1396.17	1386.95
x2 = 0.1499	1399.07	1390.3	1381.48	1372.61	1363.67	1354.7
x2 = 0.2002	1365.96	1357.46	1348.9	1340.28	1331.6	1322.86
x2 = 0.2496	1333.59	1325.35	1317.05	1308.69	1300.27	1291.8
x2 = 0.2999	1300.43	1292.46	1284.43	1276.34	1268.19	1260.01
x2 = 0.3493	1267.61	1259.92	1252.16	1244.35	1236.47	1228.55
x2 = 0.4004	1233.49	1226.07	1218.59	1211.06	1203.46	1195.83
x2 = 0.4502	1200.08	1192.93	1185.74	1178.48	1171.16	1163.79
x2 = 0.5001	1166.15	1159.29	1152.38	1145.42	1138.38	1131.32
x2 = 0.5497	1132.24	1125.66	1119.03	1112.35	1105.6	1098.81
x2 = 0.5999	1097.62	1091.33	1084.99	1078.61	1072.15	1065.65
x2 = 0.6497	1062.78	1056.79	1050.75	1044.65	1038.49	1032.31
x2 = 0.7001	1027.34	1021.65	1015.91	1010.11	1004.26	998.364
x2 = 0.7499	991.931	986.531	981.083	975.586	970.031	964.415
x2 = 0.7998	956.019	950.913	945.767	940.572	935.323	930.03
x2 = 0.8503	919.243	914.435	909.588	904.699	899.757	894.778
x2 = 0.9002	882.47	877.949	873.397	868.803	864.163	859.496
x2 = 0.95	845.487	841.239	836.96	832.652	828.298	823.912

CCCO [propan-1-ol] + ClC(Cl)Cl
x1 = 1
Settings	mass density [kg/m3]
288.15 K	807.69
293.15 K	803.703
298.15 K	799.692
303.15 K	795.65
308.15 K	791.576
313.15 K	787.466

c1ccccc1 [benzene] + CCCO
mass density [kg/m3]
Settings	288.15 K	293.15 K	298.15 K	303.15 K	308.15 K	313.15 K
x2 = 0	884.246	878.918	873.582	868.233	862.871	857.498
x2 = 0.022	882.511	877.177	871.937	866.489	861.124	855.764
x2 = 0.0557	880.03	874.714	869.383	864.034	858.669	853.296
x2 = 0.0984	876.959	871.673	866.369	861.047	855.699	850.343
x2 = 0.1632	872.435	867.203	861.955	856.682	851.38	846.063
x2 = 0.2186	868.541	863.367	858.172	852.95	847.699	842.427
x2 = 0.2385	867.148	861.999	856.826	851.625	846.396	841.156
x2 = 0.3046	862.546	857.468	852.368	847.234	842.067	836.875
x2 = 0.3993	855.836	850.881	845.896	840.877	835.823	830.744
x2 = 0.4505	852.174	847.288	842.37	837.417	832.428	827.425
x2 = 0.5023	848.393	843.581	838.736	833.856	828.935	823.986
x2 = 0.6035	840.846	836.186	831.492	826.762	821.989	817.183
x2 = 0.66	836.494	831.916	827.312	822.69	817.981	813.261
x2 = 0.7035	833.115	828.615	824.081	819.512	814.9	810.256
x2 = 0.7453	829.801	825.366	820.902	816.4	811.856	807.285
x2 = 0.8016	825.211	820.875	816.507	812.105	807.61	803.184
x2 = 0.8447	821.474	817.209	812.998	808.593	804.229	799.833
x2 = 0.8981	816.954	812.786	808.589	804.36	800.093	795.804
x2 = 0.9495	812.375	808.313	804.141	800.008	795.838	791.644
